Experimental data taken from ChEMBL document CHEMBL3832881, “CO-ADD antimicrobial screening data of OSM samples” (2017).
≈ marks a conversion by molar mass, not a printed value.

How the values were obtained:
[1] = test system: Staphylococcus aureus; assay: Antibacterial activity against Staphylococcus aureus MRSA ATCC 43300; Growth inhibition at 32 ug/mL in CAMBH media using NBS plates.; assay type: functional, ATCC 43300; MRSA; conditions: ASSAY_TEST Inhibition of Bacterial Growth, CONC 32 ug.mL-1, detection method Absorption (OD600), MEDIA CAMHB, plate type NBS, 384well, time 18 hr
[2] = test system: Escherichia coli; assay: Antibacterial activity against Escherichia coli ATCC 25922; Growth inhibition at 32 ug/mL in CAMBH media using NBS plates.; assay type: functional, ATCC 25922; Type strain; conditions: Type strain, ASSAY_TEST Inhibition of Bacterial Growth, CONC 32 ug.mL-1, detection method Absorption (OD600), MEDIA CAMHB, plate type NBS, 384well, time 18 hr
[3] = test system: Klebsiella pneumoniae; assay: Antibacterial activity against Klebsiella pneumoniae MDR ATCC 70063; Growth inhibition at 32 ug/mL in CAMBH media using NBS plates.; assay type: functional, ATCC 700603; MDR; conditions: ATCC 700603, ASSAY_TEST Inhibition of Bacterial Growth, CONC 32 ug.mL-1, detection method Absorption (OD600), MEDIA CAMHB, plate type NBS, 384well, time 18 hr
[4] = test system: Pseudomonas aeruginosa; assay: Antibacterial activity against Pseudomonas aeruginosa ATCC 27853; Growth inhibition at 32 ug/mL in CAMBH media using NBS plates.; assay type: functional, ATCC 27853; Type strain; conditions: Type strain, ASSAY_TEST Inhibition of Bacterial Growth, CONC 32 ug.mL-1, detection method Absorption (OD600), MEDIA CAMHB, plate type NBS, 384well, time 18 hr
[5] = test system: Acinetobacter baumannii; assay: Antibacterial activity against Acinetobacter baumannii ATCC 19606; Growth inhibition at 32 ug/mL in CAMBH media using NBS plates.; assay type: functional, ATCC 19606; Type strain; conditions: Type strain, ASSAY_TEST Inhibition of Bacterial Growth, CONC 32 ug.mL-1, detection method Absorption (OD600), MEDIA CAMHB, plate type NBS, 384well, time 18 hr
[6] = test system: Candida albicans; assay: Antifungal activity against Candida albicans ATCC 90028; Growth inhibition at 32 ug/mL in YNB media using NBS plates.; assay type: functional, ATCC 90028; CLSI reference; conditions: CLSI reference, ASSAY_TEST Inhibition of Fungal Growth, CONC 32 ug.mL-1, detection method Absorption (OD600), plate type NBS, 384well, time 18 hr
[7] = test system: Cryptococcus neoformans; assay: Antifungal activity against Cryptococcus neoformans H99 ATCC 208821; Growth inhibition at 32 ug/mL in YNB media using NBS plates.; assay type: functional, ATCC 208821; H99 Type strain; conditions: H99 Type strain, ASSAY_TEST Inhibition of Fungal Growth, CONC 32 ug.mL-1, detection method Resazurin, Absorption (OD600-OD570), plate type NBS, 384well, time 18 hr
[8] = test system: Staphylococcus aureus; assay: Antibacterial activity against Staphylococcus aureus MRSA ATCC 43300; MIC in CAMBH media using NBS plates.; assay type: functional, ATCC 43300; MRSA; conditions: ASSAY_TEST Inhibition of Bacterial Growth, detection method Absorption (OD600), MEDIA CAMHB, plate type NBS, 384well, time 18 hr
[9] = test system: Escherichia coli; assay: Antibacterial activity against Escherichia coli ATCC 25922; MIC in CAMBH media using NBS plates.; assay type: functional, ATCC 25922; Type strain; conditions: Type strain, ASSAY_TEST Inhibition of Bacterial Growth, detection method Absorption (OD600), MEDIA CAMHB, plate type NBS, 384well, time 18 hr
[10] = test system: Klebsiella pneumoniae; assay: Antibacterial activity against Klebsiella pneumoniae MDR ATCC 70063; MIC in CAMBH media using NBS plates.; assay type: functional, ATCC 700603; MDR; conditions: ATCC 700603, ASSAY_TEST Inhibition of Bacterial Growth, detection method Absorption (OD600), MEDIA CAMHB, plate type NBS, 384well, time 18 hr
[11] = test system: Pseudomonas aeruginosa; assay: Antibacterial activity against Pseudomonas aeruginosa ATCC 27853; MIC in CAMBH media using NBS plates.; assay type: functional, ATCC 27853; Type strain; conditions: Type strain, ASSAY_TEST Inhibition of Bacterial Growth, detection method Absorption (OD600), MEDIA CAMHB, plate type NBS, 384well, time 18 hr
[12] = test system: Acinetobacter baumannii; assay: Antibacterial activity against Acinetobacter baumannii ATCC 19606; MIC in CAMBH media using NBS plates.; assay type: functional, ATCC 19606; Type strain; conditions: Type strain, ASSAY_TEST Inhibition of Bacterial Growth, detection method Absorption (OD600), MEDIA CAMHB, plate type NBS, 384well, time 18 hr
[13] = test system: Candida albicans; assay: Antifungal activity against Candida albicans ATCC 90028; MIC in YNB media using NBS plates.; assay type: functional, ATCC 90028; CLSI reference; conditions: CLSI reference, ASSAY_TEST Inhibition of Fungal Growth, detection method Absorption (OD630), plate type NBS, 384well, time 18 hr
[14] = test system: Cryptococcus neoformans; assay: Antifungal activity against Cryptococcus neoformans H99 ATCC 208821; MIC in YNB media using NBS plates.; assay type: functional, ATCC 208821; H99 Type strain; conditions: H99 Type strain, ASSAY_TEST Inhibition of Fungal Growth, detection method Resazurin, Absorption (OD600-OD570), plate type NBS, 384well, time 18 hr
[15] = Cytotoxicity against HEK293 cells; CC50 by Resazurin assay in DMEM (10% FBS) media using TC plates; assay type: toxicity, cell-based, ATCC CRL1573; design: time 18 hr; conditions: human

| SMILES | inhibition at 32 µg/mL [1] [%] | inhibition at 32 µg/mL [2] [%] | inhibition at 32 µg/mL [3] [%] | inhibition at 32 µg/mL [4] [%] | inhibition at 32 µg/mL [5] [%] | inhibition at 32 µg/mL [6] [%] | inhibition at 32 µg/mL [7] [%] | MIC [8] [mg/L] | MIC [9] [mg/L] | MIC [10] [mg/L] | MIC [11] [mg/L] | MIC [12] [mg/L] | MIC [13] [mg/L] | MIC [14] [mg/L] | CC50 at 18 h [15] [mg/L] |
| --- | --- | --- | --- | --- | --- | --- | --- | --- | --- | --- | --- | --- | --- | --- | --- |
| c1cc2c(s1)CCOC21CCN(Cc2ccc3c(c2)OCCO3)CC1 | 17.4 | 16.1 | 19.3 | 8.6 | 10.2 | 1 | -5.8 |  |  |  |  |  |  |  |  |
| Cc1cc(/C=C2\S/C(=N\c3ccccc3)NC2=O)c(C)n1-c1ccc(C(F)(F)F)cc1 | 17.9 | 6.8 | 6.7 | 7.3 | 9.1 | 9.8 | -1.7 |  |  |  |  |  |  |  |  |
| c1ccc(CN2CCC3(CC2)OCCc2ccsc23)cc1 | 17.1 | 17.1 | 8.6 | 11.9 | 9.8 | 3.6 | -4 |  |  |  |  |  |  |  |  |
| c1ccc(CN2CCC3(CC2)OCCc2cc(-c4ccccc4)sc23)cc1 | 18.9 | 14.3 | 12.4 | -1.5 | 6.6 | 9.1 | -0.6 |  |  |  |  |  |  |  |  |
| CCN1C(=O)c2cccc3c(-n4cc(CN5CCCNCCN(Cc6cn(-c7ccc8c9c(cccc79)C(=O)N(CC)C8=O)nn6)CCCNCC5)nn4)ccc(c23)C1=O.O=C(O)C(F)(F)F.O=C(O)C(F)(F)F | 54 | 20.4 | 17.2 | 15.2 | 31.4 | 5.2 | 1.4 | > 32 | > 32 | > 32 | > 32 | > 32 | > 32 | > 32 | > 32 |
| Clc1ccc(-c2nnc3cncc(OCCc4ccccc4)n23)cc1 | 14.5 | 5.2 | 7.5 | 8.6 | 5.7 | 88.8 | -0.5 | > 32 | > 32 | > 32 | > 32 | > 32 | 16 (≈ 45.6 µM) | > 32 | > 32 |
| CC(C)C[C@H](NC(=O)[C@H](CCCCN)NC(=O)Cn1cc(CN2CCCNCCNCCCNCC2)nn1)C(=O)N[C@H](C(=O)N[C@@H](Cc1ccccc1)C(=O)N[C@@H](Cc1ccccc1)C(=O)O)C(C)C | 16.9 | 21.4 | 6 | 5 | 13.1 | 1.3 | -3.4 |  |  |  |  |  |  |  |  |
| COc1ccc(-n2c(C)cc(/C=C3\S/C(=N\c4ccccc4)NC3=O)c2C)cc1 | 10.6 | 2.8 | -1.1 | -4.2 | -2.8 | 7.8 | -4.3 |  |  |  |  |  |  |  |  |
| Clc1ccccc1-c1nnc2cncc(OCCc3ccccc3)n12 | 15.3 | 17.8 | 6.2 | 14.7 | 5.2 | 1.8 | -5.6 |  |  |  |  |  |  |  |  |
| Nc1ncnc2cc(-c3ccc(C(=O)N4CCOCC4)cc3)sc12 | 22.2 | 8.6 | 5.4 | 2.4 | 8.3 | 1 | -1.2 |  |  |  |  |  |  |  |  |
| O=C(CCCC[C@@H]1SC[C@@H]2NC(=O)N[C@@H]21)NCCCn1cc(CN2CCCNCCNCCCNCC2)nn1 | 19.4 | 15.2 | 12.5 | 10.9 | 23 | 2.8 | 41.9 |  |  |  |  |  |  |  |  |
| COc1ccc(-n2c(C)cc(CN3CCC4(CC3)OCCc3sccc34)c2C)cc1 | 55 | 22.4 | 15.4 | 22.6 | 4.6 | 2.4 | -0.2 | > 32 | > 32 | > 32 | > 32 | > 32 | > 32 | > 32 | > 32 |
| COc1ccc(-n2c(C)cc(/C=C3\S/C(=N\c4cccc(O)c4)NC3=O)c2C)cc1 | 8.9 | 2.1 | -1.3 | -0.1 | -4.5 | 2.5 | -6.8 |  |  |  |  |  |  |  |  |
| COc1cc2c(cc1OC)C1(CCN(Cc3ccccc3)CC1)OCC2 | 16.9 | 17.8 | 16.4 | 23.6 | 7.9 | 2.2 | -8.2 |  |  |  |  |  |  |  |  |
| O=C(Nc1cccc(Cl)c1)c1cncc2nnc(-c3ccc(OC(F)(F)F)cc3)n12 | 5.8 | 3.5 | 1.6 | 4 | -5.2 | 3.5 | -2.8 |  |  |  |  |  |  |  |  |
| O=C(Nc1cccc(Cl)c1F)c1cncc2nnc(-c3ccc(OC(F)F)cc3)n12 | 1.4 | -1.1 | -0.7 | 1 | -9.8 | 1.1 | -7.5 |  |  |  |  |  |  |  |  |
| Cc1cc(C(=O)OCC(N)=O)c(C)n1-c1ccc(F)cc1 | 24.9 | 13.4 | 12.3 | 6 | 12.2 | 7.5 | -2.2 |  |  |  |  |  |  |  |  |
| Nc1ncnc2cc(-c3cccc(S(N)(=O)=O)c3)sc12 | 27.6 | 17.9 | 9.5 | 2.3 | 7.5 | 8.9 | -4.6 |  |  |  |  |  |  |  |  |
